In patent US8802700B2 (Vertex Pharmaceuticals Incorporated, priority 2010, dated 2014) one finds EC50 and Emax data, which are given here for 33 compounds.

T1 sequence (P13569 with tags, fused parts or gaps DEL508-508): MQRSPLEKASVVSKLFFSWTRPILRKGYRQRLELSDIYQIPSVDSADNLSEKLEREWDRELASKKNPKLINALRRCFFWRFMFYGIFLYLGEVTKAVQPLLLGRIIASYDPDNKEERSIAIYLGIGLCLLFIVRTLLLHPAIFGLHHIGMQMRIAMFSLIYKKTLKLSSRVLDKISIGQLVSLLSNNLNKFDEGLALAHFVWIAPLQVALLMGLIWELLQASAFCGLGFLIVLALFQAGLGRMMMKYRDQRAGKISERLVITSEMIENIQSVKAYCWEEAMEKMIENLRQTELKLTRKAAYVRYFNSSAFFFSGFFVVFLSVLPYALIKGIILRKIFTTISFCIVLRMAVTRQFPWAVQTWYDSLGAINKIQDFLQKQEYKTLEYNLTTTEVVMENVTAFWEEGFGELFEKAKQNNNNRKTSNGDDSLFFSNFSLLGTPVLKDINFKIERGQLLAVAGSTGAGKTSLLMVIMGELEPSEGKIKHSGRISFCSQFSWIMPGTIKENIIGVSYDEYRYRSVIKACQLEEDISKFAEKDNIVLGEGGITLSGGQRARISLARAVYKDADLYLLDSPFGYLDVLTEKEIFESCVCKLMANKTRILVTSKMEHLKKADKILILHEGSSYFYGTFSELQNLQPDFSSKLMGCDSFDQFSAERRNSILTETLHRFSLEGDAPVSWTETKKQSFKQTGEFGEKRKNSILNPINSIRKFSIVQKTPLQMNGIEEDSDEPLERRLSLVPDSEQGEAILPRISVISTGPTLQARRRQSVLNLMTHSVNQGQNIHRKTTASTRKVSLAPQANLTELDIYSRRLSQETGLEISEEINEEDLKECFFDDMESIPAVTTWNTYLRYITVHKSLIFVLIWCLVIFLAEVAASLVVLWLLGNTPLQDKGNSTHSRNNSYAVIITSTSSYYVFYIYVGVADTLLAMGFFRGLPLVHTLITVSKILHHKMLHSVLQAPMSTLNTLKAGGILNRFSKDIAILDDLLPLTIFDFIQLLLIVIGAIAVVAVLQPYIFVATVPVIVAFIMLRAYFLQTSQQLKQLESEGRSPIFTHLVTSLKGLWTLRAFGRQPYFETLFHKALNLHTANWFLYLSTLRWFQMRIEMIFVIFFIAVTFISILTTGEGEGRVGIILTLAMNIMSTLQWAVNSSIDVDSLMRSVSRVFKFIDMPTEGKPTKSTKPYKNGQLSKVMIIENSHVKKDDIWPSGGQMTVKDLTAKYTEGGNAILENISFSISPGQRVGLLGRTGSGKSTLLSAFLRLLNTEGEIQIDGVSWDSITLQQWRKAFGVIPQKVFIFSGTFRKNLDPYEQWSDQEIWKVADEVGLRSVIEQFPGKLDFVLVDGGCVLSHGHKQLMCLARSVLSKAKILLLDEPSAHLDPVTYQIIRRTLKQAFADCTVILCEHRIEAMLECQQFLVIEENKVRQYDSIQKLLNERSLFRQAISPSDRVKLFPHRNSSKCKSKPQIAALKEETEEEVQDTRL

One assay concerns the target T1, ΔF508-CFTR (Homo sapiens, UniProt P13569, DEL508-508).
T1 construct: expressed in transfected cells
As to the kind of experiment: Membrane potential optical assay (FRET voltage-sensor dyes, VIPR), identification of potentiator compounds. It is filed as cell-based. Conditions: Table 3; assay not given. The text has this:
The optical membrane potential assay utilized voltage-sensitive FRET sensors described by Gonzalez and Tsien (See Gonzalez, J. E. and R. Y. Tsien (1995) “Voltage sensing by fluorescence resonance energy transfer in single cells” Biophys J 69(4): 1272-80, and Gonzalez, J. E. and R. Y. Tsien (1997) “Improved indicators of cell membrane potential that use fluorescence resonance energy transfer” Chem Biol 4(4): 269-77) in combination with instrumentation for measuring fluorescence changes such as the Voltage/Ion Probe Reader (VIPR) (See […]. Oades, et al. (1999) “Cell-based assays and instrumentation for screening ion-channel targets” Drug Discov Today 4(9): 431-439). These voltage sensitive assays are based on the change in fluorescence resonant energy transfer (FRET) between the membrane-soluble, voltage-sensitive dye, DiSBAC2(3), and a fluorescent phospholipid, CC2-DMPE, which is attached to the outer leaflet of the plasma membrane and acts as a FRET donor. Changes in membrane potential (Vm) cause the negatively charged DiSBAC2(3) to redistribute across the plasma membrane and the amount of energy transfer from CC2-DMPE changes accordingly. The changes in fluorescence emission were monitored using VIPRTM II, which is an integrated liquid handler and fluorescent detector designed to conduct cell-based screens in 96- or 384-well microtiter plates. To identify potentiators of ΔF508-CFTR, a double-addition HTS assay format was developed. During the first addition, a Cl^--free medium with or without test compound was added to each well. […] (in mM) NaCl 160, KCl 4.5, CaCl2 2, MgCl2 1, HEPES 10, pH 7.4 with NaOH. • Chloride-free bath solution: Chloride salts in Bath Solution #1 are substituted with gluconate salts. • CC2-DMPE: Prepared as a 10 mM stock solution in DMSO and stored at -20° C. • DiSBAC2(3): Prepared as a 10 mM stock in DMSO and stored at -20° C. NIH3T3 mouse fibroblasts stably expressing ΔF508-CFTR are used for optical measurements of membrane potential. […] For all optical assays, the cells were seeded at 30,000/well in 384-well matrigel-coated plates and cultured for 2 hrs at 37° C. before culturing at 27° C. for 24 hrs. for the potentiator assay.
Regarding `O=C(Nc1ccccc1-c1ccoc1)c1c[nH]c2ccccc2c1=O` [Compound 123, N-[2-(3-furyl)phenyl]-4-oxo-1H-quinoline-3-carboxamide], the concentration for a half-maximal effect (EC50) (as a rule, the concentration needed to bring the measured effect to its halfway point) is less than 10 µM.
Same read-out and setting: as for `Cc1cc(-c2ccccc2NC(=O)c2c[nH]c3ccccc3c2=O)ccc1F` [Compound 79, N-[2-(4-fluoro-3-methyl-phenyl)phenyl]-4-oxo-1H-quinoline-3-carboxamide], the figure is less than 10 µM.

The assay is the same for the next values; noted with them: Table 3; assay not given; read-out: % Activity (% Efficacy, relative efficacy).
In the case of `O=C(Nc1ccc(F)cn1)c1c[nH]c2ccccc2c1=O` [Compound 477, N-(5-fluoro-2-pyridyl)-4-oxo-1H-quinoline-3-carboxamide], the Emax is less than 25%.
On the same count and under the same terms, as for `O=C(Nc1ccc(N2CCC[C@@H]2C(=O)O)cc1C(F)(F)F)c1c[nH]c2ccccc2c1=O` [Compound 698, (R)-1-[4-[(4-oxo-1H-quinolin-3-yl)carbonylamino]-3-(trifluoromethyl)phenyl]pyrrolidine-2-carboxylic acid], the figure is 25 to 100%; as for `COc1cc(NC(=O)c2c[nH]c3ccccc3c2=O)ccc1C(C)(C)C` [Compound 2, N-(3-methoxy-4-tert-butyl-phenyl)-4-oxo-1H-quinoline-3-carboxamide], 25 to 100%; as for `Cn1cc(C(=O)Nc2ccccc2)c(=O)c2ccccc21` [Compound 468, 1-methyl-4-oxo-N-phenyl-1H-quinoline-3-carboxamide], less than 25%.
Regarding `O=C(Nc1cc(O)c(C2CCCCC2)cc1C(F)(F)F)c1c[nH]c2ccccc2c1=O` [Compound 619, N-[4-cyclohexyl-5-hydroxy-2-(trifluoromethyl)phenyl]-4-oxo-1H-quinoline-3-carboxamide], the Emax was more than 100%.
Same read-out and setting: under `COc1ccc2[nH]cc(C(=O)Nc3cc(O)c(C(C)(C)C)cc3C(C)(C)C)c(=O)c2c1` [Compound 496, N-(5-hydroxy-2,4-ditert-butyl-phenyl)-6-methoxy-4-oxo-1H-quinoline-3-carboxamide] stands 25 to 100%.
Consider `Cc1cc(C(C)(C)C)c(O)cc1NC(=O)c1c[nH]c2cccc(O)c2c1=O` [Compound 588, 5-hydroxy-N-(5-hydroxy-2-methyl-4-tert-butyl-phenyl)-4-oxo-1H-quinoline-3-carboxamide], for which the Emax fell in the range of 25 to 100%.
On to `O=C(Nc1ccc(N2CCOCC2)cc1C(F)(F)F)c1c[nH]c2ccccc2c1=O` [Compound 598, N-[4-morpholino-2-(trifluoromethyl)phenyl]-4-oxo-1H-quinoline-3-carboxamide], for which the Emax was more than 100%.
Regarding `CC1(c2cc(F)c(NC(=O)c3cnc4ccccc4c3O)cc2O)CCCCCCC1` [Compound 403, N-[2-fluoro-5-hydroxy-4-(1-methylcyclooctyl)-phenyl]-4-hydroxy-quinoline-3-carboxamide], the Emax is 25 to 100%.
On the same count and under the same terms, as for `O=C(Nc1ccc(-c2ccccc2CNC(=O)C(F)(F)F)cc1)c1c[nH]c2ccccc2c1=O` [Compound 224, 4-oxo-N-[4-[2-[(2,2,2-trifluoroacetyl)aminomethyl]phenyl]phenyl]-1H-quinoline-3-carboxamide], the figure is 25 to 100%; as for `COc1ccc(NC(C)=O)cc1NC(=O)c1c[nH]c2ccccc2c1=O` [Compound 250, N-(5-acetylamino-2-methoxy-phenyl)-4-oxo-1H-quinoline-3-carboxamide], less than 25%.
On the same count and under the same terms, under `Cc1cccc2[nH]cc(C(=O)Nc3ccc(N4[C@@H](C)CC[C@@H]4C)cc3C(F)(F)F)c(=O)c12` [Compound 516, N-(4-((2S,5S)-2,5-dimethylpyrrolidin-1-yl)-2-(trifluoromethyl)phenyl)-5-methyl-4-oxo-1,4-dihydroquinoline-3-carboxamide] stands 25 to 100%; under `O=C(Nc1ccc(N2CCCC2)cc1C(F)(F)F)c1c[nH]c2ccccc2c1=O` [Compound 658, 4-oxo-N-[4-pyrrolidin-1-yl-2-(trifluoromethyl)phenyl]-1H-quinoline-3-carboxamide], 25 to 100%; under `O=C(Nc1cc(O)cc(C(F)(F)F)c1)c1c[nH]c2ccc(F)cc2c1=O` [Compound 574, 6-fluoro-N-[3-hydroxy-5-(trifluoromethyl)phenyl]-4-oxo-1H-quinoline-3-carboxamide], 25 to 100%.
The same measure, in the same setting: as for `COc1cc2c(=O)c(C(=O)Nc3cc4[nH]ccc4cc3C(C)(C)C)c[nH]c2cc1F` [Compound 611, 7-fluoro-6-methoxy-4-oxo-N-(5-tert-butyl-1H-indol-6-yl)-1H-quinoline-3-carboxamide], the figure is more than 100%; as for `CC(C)(C)OC(=O)Nc1ccc(C(C)(C)C)c(NC(=O)c2c[nH]c3ccccc3c2=O)c1` [Compound 353, [3-[(4-oxo-1H-quinolin-3-yl)carbonylamino]-4-tert-butyl-phenyl]aminoformic acid tert-butyl ester], 25 to 100%; as for `CC(C)(C)OC(=O)N1CCc2ccc(NC(=O)c3c[nH]c4ccccc4c3=O)cc2C1` [Compound 107, 7-[(4-oxo-1H-quinolin-3-yl)carbonylamino]-1,2,3,4-tetrahydroisoquinoline-2-carboxylic acid tert-butyl ester], 25 to 100%.
Turning to `CCc1ccccc1NC(=O)c1c[nH]c2ccccc2c1=O` [Compound 72, N-(2-ethylphenyl)-4-oxo-1H-quinoline-3-carboxamide], the Emax lay in the range of 25 to 100%.
On to `CC1(C)CCN(c2ccc(NC(=O)c3c[nH]c4ccccc4c3=O)c(C(F)(F)F)c2)C1` [Compound 536, N-[4-(3,3-dimethylpyrrolidin-1-yl)-2-(trifluoromethyl)phenyl]-4-oxo-1H-quinoline-3-carboxamide], for which the Emax lay in the range of 25 to 100%.
On the same count and under the same terms, as for `O=C(Nc1ccccc1-c1ccoc1)c1c[nH]c2ccccc2c1=O` [Compound 123, N-[2-(3-furyl)phenyl]-4-oxo-1H-quinoline-3-carboxamide], the figure is 25 to 100%; as for `CCCCCc1ccc(NC(=O)c2c[nH]c3ccccc3c2=O)cc1` [Compound 99, 4-oxo-N-(4-pentylphenyl)-1H-quinoline-3-carboxamide], 25 to 100%; as for `CC(C)(C)c1cc(C(F)(F)F)c(NC(=O)c2c[nH]c3ccc(F)cc3c2=O)cc1O` [Compound 509, 6-fluoro-N-[5-hydroxy-4-tert-butyl-2-(trifluoromethyl)phenyl]-4-oxo-1H-quinoline-3-carboxamide], 25 to 100%.
On the same count and under the same terms, as for `CC(C)(C)c1cccc(NC(=O)c2c[nH]c3ccccc3c2=O)c1` [Compound 602, 4-oxo-N-(3-tert-butylphenyl)-1H-quinoline-3-carboxamide], the figure is 25 to 100%.
Still for that read-out and setting: under `O=C(Nc1ccc(C(F)(F)F)cc1N1CCCCC1)c1c[nH]c2ccccc2c1=O` [Compound 514, 4-oxo-N-[2-(1-piperidyl)-4-(trifluoromethyl)phenyl]-1H-quinoline-3-carboxamide] stands 25 to 100%.
Take `Cc1cc(-c2ccccc2NC(=O)c2c[nH]c3ccccc3c2=O)ccc1F` [Compound 79, N-[2-(4-fluoro-3-methyl-phenyl)phenyl]-4-oxo-1H-quinoline-3-carboxamide]: the Emax was in the range of 25 to 100%.
Turning to `COc1ccccc1-c1ccccc1NC(=O)c1c[nH]c2ccccc2c1=O` [Compound 355, N-[2-(2-methoxyphenyl)phenyl]-4-oxo-1H-quinoline-3-carboxamide], the Emax was 25 to 100%.
For `C[C@H]1CCCN1c1ccc(NC(=O)c2c[nH]c3ccccc3c2=O)c(C(F)(F)F)c1` [Compound 618, (S)-N-(4-(2-methylpyrrolidin-1-yl)-2-(trifluoromethyl)phenyl)-4-oxo-1,4-dihydroquinoline-3-carboxamide], the Emax fell in the range of 25 to 100%.
On the same count and under the same terms, under `O=C(Nc1ccccc1-c1ccc(F)cc1)c1c[nH]c2ccccc2c1=O` [Compound 182, N-[2-(4-fluorophenyl)phenyl]-4-oxo-1H-quinoline-3-carboxamide] stands 25 to 100%; under `CCOC(=O)NC1CCCc2ccc(NC(=O)c3c[nH]c4ccccc4c3=O)cc21` (centres unmarked) [Compound 482, [7-[(4-Oxo-1H-quinolin-3-yl)carbonylamino]tetralin-1-yl]aminoformic acid ethyl ester], 25 to 100%.
Same read-out and setting: as for `O=C(Nc1ccc(C(F)(F)F)cc1Cl)c1c[nH]c2cccc(O)c2c1=O` [Compound 635, N-[2-chloro-4-(trifluoromethyl)phenyl]-5-hydroxy-4-oxo-1H-quinoline-3-carboxamide], the figure is 25 to 100%.
On the same count and under the same terms, as for `COc1ccc(-c2ccccc2NC(=O)c2c[nH]c3ccccc3c2=O)c(OC)c1` [Compound 312, N-[2-(2,4-dimethoxyphenyl)phenyl]-4-oxo-1H-quinoline-3-carboxamide], the figure is 25 to 100%; as for `CC(=O)N1CC2(CC2)c2ccc(NC(=O)c3c[nH]c4ccccc4c3=O)cc21` [Compound 175, 4-Oxo-1,4-dihydro-quinoline-3-carboxylic acid N-(1′-Acetyl-1′,2′-dihydrospiro[cyclopropane-1,3′-3H-indol]-6′-yl)-amide], 25 to 100%.
Regarding `COc1nc(NC(=O)c2c[nH]c3ccccc3c2=O)ccc1C(F)(F)F` [Compound 571, N-[6-methoxy-5-(trifluoromethyl)-2-pyridyl]-4-oxo-1H-quinoline-3-carboxamide], the Emax was less than 25%.
